Where two headings read alike, the source gives them in different places.

Test [1] has as its target T1, human recombinant 5-HT2A receptor (Homo sapiens, UniProt P28223).
T1 construct: expressed in transfected cells; host or cells: Jump-In HEK cells (membrane preparation)
The test can be described thus: Test Example 1-2: 5-HT2A receptor binding inhibition test ([3H]-Ketanserin; non-specific ligand Ketanserin). The method, boiled down:
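Ki values were derived from dose-response inhibition of [3H]-ketanserin binding; nonspecific binding was set with 500 µmol/L ketanserin, and Kd was set for each membrane lot from Scatchard saturation plots. Incubation lasted 1.5 h at room temperature (25 °C). Bound radioligand was harvested on Tris-HCl (pH 7.4)-presoaked filters and counted.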

In test [2] the target is T2, human recombinant 5-HT2C receptor (Homo sapiens, UniProt P28335).
T2 construct: expressed in transfected cells; host or cells: Jump-In HEK cells (membrane preparation)
T2 sequence (P28335 33-458): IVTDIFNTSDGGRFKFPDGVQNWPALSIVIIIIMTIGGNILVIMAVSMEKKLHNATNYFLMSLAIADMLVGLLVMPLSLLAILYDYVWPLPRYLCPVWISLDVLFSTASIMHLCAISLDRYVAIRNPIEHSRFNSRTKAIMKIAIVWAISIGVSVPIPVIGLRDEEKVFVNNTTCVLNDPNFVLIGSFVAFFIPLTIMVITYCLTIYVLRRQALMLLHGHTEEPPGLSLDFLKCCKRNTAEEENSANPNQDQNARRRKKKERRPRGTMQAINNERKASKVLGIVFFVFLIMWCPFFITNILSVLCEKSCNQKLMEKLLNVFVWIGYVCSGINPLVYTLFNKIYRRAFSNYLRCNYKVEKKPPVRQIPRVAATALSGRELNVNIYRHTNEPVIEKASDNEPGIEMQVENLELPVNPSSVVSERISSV
Description: Test Example 2-2: 5-HT2C receptor binding inhibition test ([3H]-Mesulergine; non-specific ligand Ketanserin). The settings on record: non-specific binding with 500 µmol/L Ketanserin, 37°C, 2 hours. On the procedure:
The Kd value is calculated when the lot of the cell membrane is changed. 1 mmol/L non-specific binding calculating compound dissolved in DMSO or DMSO is previously dispensed to the microplate by 0.5 µL, and the cell membrane is diluted with an Assay buffer. The radioactive ligand solution is diluted step by step, and counts are checked with a liquid scintillator. The Assay buffer containing diluted cell membranes is dispensed by 50 µL/well into the microplate. The radioactive ligand solution is then dispensed by 50 µL/well into the microplate and the plate is sealed. The microplate is allowed to stand at 37°C for 2 hours. During this time, 50 mmol/L Tris-HCl (pH 7.4) is dispensed by 50 µL/well into the UniFilter plate and allowed to stand at 4°C for 1 hour or longer. Thereafter, filtration is performed with a Cell Harvester (PerkinElmer). The radioactive ligand solution is dispensed by 10 µL/well into empty wells of the UniFilter plate. After drying the UniFilter plate at room temperature, MicroScinti20 is dispensed by 50 µL/well into the UniFilter plate, and the plate is sealed. UniFilter plate is allowed to stand at room temperature overnight. The radioactivity of [^3H]-Mesulergine bound to the 5-HT2C receptor is measured using Microbeta2 (PerkinElmer) at a measurement time of 1 min/well. The Saturation curve is drawn from the measured value, and the Kd value is calculated from the slope of the Scatchard Plot.
A compound solution dissolved in DMSO is dispensed to a microplate by 0.5 µL, and a cell membrane and a hot ligand are each diluted with an Assay buffer. The Assay buffer containing diluted cell membrane is then dispensed by 50 µL/well into the microplate. The radioactive ligand solution is then dispensed by 50 µL/well into the microplate and the plate is sealed. The microplate is then allowed to stand at 37°C for 2 hours. During this time, 50 mmol/L Tris-HCl (pH 7.4) is dispensed by 50 µL/well into the UniFilter plate and allowed to stand at 4°C for 1 hour or longer. Thereafter, filtration is performed with a Cell Harvester (PerkinElmer). After drying the UniFilter plate at room temperature, MicroScinti20 is dispensed by 50 µL/well into the UniFilter plate, and the plate is sealed. UniFilter plate is allowed to stand at room temperature overnight. The radioactivity of [^3H]-Mesulergine bound to the 5-HT2C receptor is measured using Microbeta2 (PerkinElmer) at a measurement time of 1 min/well. Non-specific binding is calculated from the radioactivity of [^3H]-Mesulergine in the presence of 500 µmol/L Ketanserin of unlabeled ligand, and total binding is calculated from the radioactivity of [^3H]-Mesulergine in the absence of the compound of the present invention (Vehicle). Finally, the Ki value is calculated from the dose-response curve.
(The binding activity of the compound according to the present invention is calculated from the following binding inhibition rate (%).) Inhibition rate (%) = [1−(c−a)/(b−a)] × 100 [formula] • a; average cpm of non-specific binding • b; average cpm of total binding • c; cpm in the presence of the test compound
The compounds of the present invention were tested essentially as described above.

The mark [3] stands for this setting: [3H]-Ketanserin, non-specific binding with 500 µmol/L Ketanserin, room temperature (25°C), 1.5 hours, read-out: h 5-HT2A Ki.

T1 sequence (P28223 whole entry): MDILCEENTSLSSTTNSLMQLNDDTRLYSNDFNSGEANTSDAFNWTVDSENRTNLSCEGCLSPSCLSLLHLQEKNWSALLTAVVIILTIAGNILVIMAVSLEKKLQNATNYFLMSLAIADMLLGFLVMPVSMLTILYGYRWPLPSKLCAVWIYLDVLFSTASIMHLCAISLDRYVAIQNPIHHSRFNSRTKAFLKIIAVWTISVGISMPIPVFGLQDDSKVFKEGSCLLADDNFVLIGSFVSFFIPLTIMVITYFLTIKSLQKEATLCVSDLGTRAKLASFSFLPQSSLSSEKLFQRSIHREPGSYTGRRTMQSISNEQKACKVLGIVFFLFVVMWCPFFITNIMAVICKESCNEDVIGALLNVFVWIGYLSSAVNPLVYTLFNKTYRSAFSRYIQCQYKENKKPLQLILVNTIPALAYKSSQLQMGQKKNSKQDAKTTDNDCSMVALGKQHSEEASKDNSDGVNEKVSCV

By Ki is commonly meant the dissociation constant of the complex between target and ligand, obtained from inhibition or displacement. Regarding `Cc1cnn(C)c1-c1cc(Nc2ncc(C(F)(F)F)cc2F)cnc1OCCO` [Compound I-083], the Ki in test [1] (setting [3]) came to 0.289 nM; in test [2] it was 2.97 nM.
Take `Cn1ncc(Br)c1-c1cc(Nc2nc3cc(Br)ccc3n2C)ccc1OCCO` [Compound I-084]: the figures for the Ki in test [1] (setting [3]) and in test [2] were 0.442 nM and 0.297 nM, respectively.
The matching figures for `COc1ccc2nc(Nc3ccc(OCCO)c(-c4c(Br)cnn4C)c3)sc2c1` [Compound I-085]: 0.192 nM and 0.55 nM.
Consider `Cn1ncc(F)c1-c1cc(Nc2ncc(Cl)cc2F)ccc1OCCO` [Compound I-086], for which the results for the Ki in test [1] (setting [3]) and in test [2] were 0.205 nM and 8.84 nM, respectively.
Turning to `Cn1ncc(C#N)c1-c1cc(Nc2ncc(C(F)(F)F)cc2F)cnc1OCCO` [Compound I-087], the Ki stood at 0.241 nM in test [1] (setting [3]) and 6.37 nM in test [2].
The matching figures for `Cc1cnn(C)c1-c1cc(Nc2ncc(Cl)cc2F)ncc1OCCO` [Compound I-088]: 0.267 nM and 8.31 nM.
Turning to `Cn1ncc(Br)c1-c1cc(Nc2ncc(F)cc2F)ncc1OCCO` [Compound I-089], the Ki in test [1] (setting [3]) came to 0.412 nM; in test [2] it was 3 nM.
For the compound `Cn1ncc(Br)c1-c1cc(Nc2ccc(Cl)cn2)ccc1OCCO` [Compound I-090], the values for the Ki in test [1] (setting [3]) and in test [2] were 0.203 nM and 0.575 nM, respectively.
Take `Cn1ncc(Br)c1-c1cc(Nc2ccc(C(F)F)cn2)ccc1OCCO` [Compound I-091]: the values for the Ki in test [1] (setting [3]) and in test [2] were 0.197 nM and 8.99 nM, respectively.
The like results for `Cn1ncc(Br)c1-c1cc(Nc2nc3ccc(F)cc3n2C)ccc1OCCO` [Compound I-092] were, in that order, 0.274 nM and 2.76 nM.
The matching figures for `Cn1ncc(Br)c1-c1cc(Nc2ccc(C3CCC3)cn2)ccc1OCCO` [Compound I-093]: 0.283 nM and 0.325 nM.
The matching figures for `Cn1ncc(Br)c1-c1cc(Nc2ccc(CC(F)(F)F)cn2)ccc1OCCO` [Compound I-094]: 0.258 nM and 0.202 nM.
For `Cn1cnc(Cl)c1-c1cc(Nc2ncc(C(F)(F)F)cc2F)ccc1OCCO` [Compound I-095], the Ki in test [1] (setting [3]) is 0.372 nM; in test [2], 0.761 nM.
The like results for `Cn1cnc(Br)c1-c1cc(Nc2ncc(Cl)cc2F)ccc1OCCO` [Compound I-096] were, in that order, 0.341 nM and 1.66 nM.
The matching figures for `Cc1nc(C)c(-c2cc(Nc3ncc(C(F)(F)F)cc3F)ccc2OCCO)c(C)n1` [Compound I-097]: 0.509 nM and 1.34 nM.
The like results for `Cc1nc(C)c(-c2cc(Nc3ncc(Cl)cc3F)ccc2OCCO)c(C)n1` [Compound I-098] were, in that order, 0.559 nM and 3.18 nM.
As for `Cn1ncc(C#N)c1-c1cc(Nc2ccc(C(F)(F)F)cn2)ccc1OCCO` [Compound I-099], the Ki in test [1] (setting [3]) is 0.224 nM; in test [2] it was 7.15 nM.
With `Cc1ncnc(C)c1-c1cc(Nc2ccc(C(F)(F)F)cn2)ccc1OCCO` [Compound I-100], the results for the Ki in test [1] (setting [3]) and in test [2] were 0.27 nM and 6.82 nM, respectively.
Turning to `Cn1ncc(Br)c1-c1cc(Nc2nc3cc(F)ccc3n2C)ccc1OCCO` [Compound I-101], the Ki in test [1] (setting [3]) was found to be 0.497 nM; in test [2], 3.11 nM.
The matching figures for `Cn1ncc(C#N)c1-c1cc(Nc2ccc(Cl)cn2)ccc1OCCO` [Compound I-102]: 0.265 nM and 7.3 nM.
`Cc1ncnc(C)c1-c1cc(Nc2ccc(Cl)cn2)ccc1OCCO` [Compound I-103]: the results for the Ki in test [1] (setting [3]) and in test [2] were 0.351 nM and 9.13 nM, respectively.
The matching figures for `Cn1ncc(Br)c1-c1cc(Nc2nc(C3CC3)ns2)ccc1OCCO` [Compound I-104]: 0.39 nM and 6.13 nM.
The matching figures for `Cn1ncc(Br)c1-c1cc(Nc2ncc(C(F)(F)F)cn2)ccc1OCCO` [Compound I-105]: 0.314 nM and 0.6 nM.
The matching figures for `Cn1cnc(F)c1-c1cc(Nc2ncc(C(F)(F)F)cc2F)ccc1OCCO` [Compound I-106]: 0.409 nM and 7.28 nM.
For the compound `Cc1cc(OCCO)c(-c2c(C#N)cnn2C)cc1Nc1ncc(C(F)(F)F)cc1F` [Compound I-107], the Ki in test [1] (setting [3]) was found to be 1.67 nM; in test [2] it was 99.3 nM.
As to `Cn1ncc(C#N)c1-c1cc(Nc2ncc(C(F)(F)F)cc2F)c(Cl)cc1OCCO` [Compound I-109], the Ki in test [1] came to 0.598 nM; in test [2], 15.4 nM.
For the compound `Cn1ncc(C#N)c1-c1cc(Nc2ncc(C(F)(F)F)cc2F)cc(F)c1OCCO` [Compound I-110], the Ki amounted to 0.375 nM in test [1] (setting [3]) and 17.3 nM in test [2].
Regarding `Cn1ncc(Br)c1-c1cc(Nc2nccc3cccnc23)ccc1OCCO` [Compound I-111], the Ki was determined as 2.98 nM in test [1] (setting [3]) and 24.2 nM in test [2].
The like results for `Cn1ncc(Br)c1-c1cc(Nc2nccc3ccccc23)ccc1OCCO` [Compound I-112] were, in that order, 0.276 nM and 25.5 nM.
Consider `Cn1ncc(Br)c1-c1cc(Nc2ncc(Cl)c3ccccc23)ccc1OCCO` [Compound I-113], for which the values for the Ki in test [1] (setting [3]) and in test [2] were 0.295 nM and 3.09 nM, respectively.
The like results for `Cn1ncc(Br)c1-c1cc(Nc2nccn3c(Br)cnc23)ccc1OCCO` [Compound I-114] were, in that order, 1.56 nM and 4.68 nM.
The matching figures for `Cn1ncc(Cl)c1-c1cc(Nc2ncc(C(F)(F)F)cc2F)ncc1OCCO` [Compound I-115]: 0.265 nM and 0.818 nM.
The matching figures for `Cn1ncc(Br)c1-c1cc(Nc2ccc(Cl)cn2)cnc1OCCO` [Compound I-116]: 0.325 nM and 0.745 nM.
Consider `Cn1ncc(Br)c1-c1cc(Nc2ncc(Cl)cc2F)cnc1OCCO` [Compound I-117], for which the inhibitory constant (Ki) is 0.241 nM in test [1] (setting [3]) and 0.305 nM in test [2].
The matching figures for `Cn1ncc(Br)c1-c1cc(Nc2nc3ccccc3s2)cnc1OCCO` [Compound I-118]: 0.262 nM and 0.596 nM.
In the case of `Cn1ncc(Br)c1-c1cc(Nc2ncc(C3CC3)cn2)ccc1OCCO` [Compound I-120], the values for the Ki in test [1] (setting [3]) and in test [2] were 0.903 nM and 3.86 nM, respectively.
With `Cn1ncc(C#N)c1-c1cc(Nc2ccc(OC(F)(F)F)cn2)ccc1OCCO` [Compound I-121], the Ki in test [1] (setting [3]) was determined as 0.279 nM; in test [2], 1.3 nM.
The like results for `Cc1nc(C)c(-c2cc(Nc3ccc(C(F)(F)F)cn3)ccc2OCCO)c(C)n1` [Compound I-122] were, in that order, 0.485 nM and 1.38 nM.
With `Cc1nc(C)c(-c2cc(Nc3ccc(Cl)cn3)ccc2OCCO)c(C)n1` [Compound I-123], the figures for the Ki in test [1] (setting [3]) and in test [2] were 0.81 nM and 5.59 nM, respectively.
The matching figures for `Cc1ncnc(C)c1-c1cc(Nc2ccc(OC(F)(F)F)cn2)ccc1OCCO` [Compound I-124]: 0.259 nM and 2.32 nM.
The like results for `Cn1ncc(C#N)c1-c1cc(Nc2ccc(C(F)(F)F)cn2)c(F)cc1OCCO` [Compound I-125] were, in that order, 0.36 nM and 6.04 nM.
On to `Cc1cnn(C)c1-c1cc(Nc2ccc(C(F)(F)F)cn2)c(Oc2ccn(C)n2)cc1OCCO` [Compound I-126], for which the Ki in test [1] (setting [3]) came out at 0.654 nM; in test [2], 4.42 nM.

Values taken from patent publication EP4631938A1, “NITROGEN-CONTAINING HETEROCYCLE WITH SEROTONIN RECEPTOR-BINDING ACTIVITY AND CARBOCYCLIC DERIVATIVE” (Shionogi & Co., Ltd, priority 2022, dated 2024).
